Test results: publication PMC10276294, “Regulatory ligand binding in plant chalcone isomerase–like (CHIL) proteins” (The Journal of Biological Chemistry, 2023)
“And” between values parts separate entries of the source, which are not always exact repeats. Equal values may be shown once.

Experiments:
[1] = target: T1, PpCHIL-A (Physcomitrium patens, UniProt A9T3E4); experiment: Differential scanning fluorimetry (DSF) thermal shift, PpCHIL-A; assay type: binding, Physcomitrella patens; details: for ΔTm: read-out: maximum thermal shift (ΔTmmax); for difference of apparent Kd relative to NC: PpCHIL-A
T1 sequence (A9T3E4 entry or part of it): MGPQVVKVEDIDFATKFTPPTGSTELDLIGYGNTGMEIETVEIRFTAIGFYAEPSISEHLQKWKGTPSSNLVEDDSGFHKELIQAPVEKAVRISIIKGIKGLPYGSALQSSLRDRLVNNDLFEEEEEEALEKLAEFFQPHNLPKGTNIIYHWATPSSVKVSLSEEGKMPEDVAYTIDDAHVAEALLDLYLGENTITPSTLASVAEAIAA
Source text: (§1) Differential scanning fluorimetry (DSF) is a sensitive and label-free method for measuring the Tm of a protein, defined as the temperature at which 50% of a protein sample is unfolded ([21]). Positive Tm changes have been used to measure binding between a CHIL protein and chalcones ([15]). To elucidate a broader scope of CHIL–chalcone interactions, DSF was used to determine the thermal shifts that occur to VvCHIL and PpCHIL-A upon binding naturally occurring chalcones containing different substitution patterns (Fig. 1).
(§2) Assays were performed using SYPRO orange dye (1:625 dilution) and 6 μM CHIL protein against dilution series of (2R/2S)-naringenin (Sigma–Aldrich), NC, 2ʹ,4,4ʹ-trihydroxychalcone (Indofine), 2,2ʹ,4ʹ-trihydroxychalcone (Indofine), and quercetin (Thermo Scientific). Reactions were run in 20 μl reaction volumes and in a buffer containing 150 mM NaCl, 25 mM Tris (pH 8.0), 2 mM DTT, and 2% DMSO. Because of low solubility, 2% DMSO was used for all reactions to enhance ligand solubility. Experiments were performed on a QuantStudio 3 Real-Time PCR and analyzed using Protein ThermalShift software (Thermo Fisher Scientific). Replicates of two to four experiments were conducted for each condition, and GraphPad Prism 9 was used to fit maximum thermal shift (ΔTmmax) and apparent Kd values.

[2] = target: T2, VvCHIL (Vitis vinifera, UniProt F6HC36); experiment: Differential scanning fluorimetry (DSF) thermal shift, VvCHIL; assay type: binding; details: for ΔTm: read-out: maximum thermal shift (ΔTmmax); for effect on protein thermostability (thermal shift): high ligand concentration
T2 sequence (F6HC36 entry or part of it): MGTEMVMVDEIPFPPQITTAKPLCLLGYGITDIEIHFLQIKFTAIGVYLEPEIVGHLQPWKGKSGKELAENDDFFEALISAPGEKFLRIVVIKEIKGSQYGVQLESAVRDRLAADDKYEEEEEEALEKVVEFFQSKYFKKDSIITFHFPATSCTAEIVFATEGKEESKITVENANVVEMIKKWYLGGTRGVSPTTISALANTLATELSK
Source text: as §1, §2

[3] = test system: VvCHIL–AtCHS binding; experiment: Protein pull-down assay, strep-AtCHS and untagged VvCHIL; design: species or system Vitis vinifera / A. thaliana; details: for effect on VvCHIL–AtCHS binding: increasing ligand concentrations, 2% DMSO
Procedure: (§3) Protein pull-down assays were conducted using 1 mg of purified strep-tagged AtCHS or PpCHS and 0.3 ml StrepTactin Sepharose resin. The untagged purified VvCHIL or PpCHIL-A proteins was used as […] (0.5 mg). Binding reactions were incubated at room temperature either without ligand and 2% DMSO, or with the reported concentration of ligand and 2% DMSO. The StrepTactin resin was washed 4× with 1 ml of buffer in order to remove unbound protein prior to elution. Each wash buffer contained the reported concentration of ligand, 2% DMSO, 150 mM NaCl, 50 mM Tris (pH 8.0), and 2 mM DTT. Strep-CHS was eluted from the StrepTactin resin with 0.1 ml elution buffer, which contains 1 mM desthiobiotin, 2% DMSO, 150 mM NaCl, 50 mM Tris (pH 8.0), and 2 mM DTT. The pull-down assays were resolved using 15% acrylamide SDS-PAGE and native PAGE gels and imaged and quantified using Image Lab (Bio-Rad). About 50 mM of DTT was used in the native PAGE loading buffer.

[4] = test system: PpCHIL–PpCHS binding; experiment: Protein pull-down assay, strep-PpCHS and untagged PpCHIL-A; design: species or system P. patens; details: 4.3 mM ligand
Procedure: as §3

[5] = target: T3, VvCHIL W221L (Vitis vinifera, UniProt F6HC36, W221L); experiment: DSF thermal shift, VvCHIL W221L variant; assay type: binding
T3 sequence (F6HC36 entry or part of it W221L): as the sequence (F6HC36 entry or part of it) above, with W183L counted along it
Procedure: as §2

[6] = target: T4, VvCHIL Q141A (Vitis vinifera, UniProt F6HC36, Q141A); experiment: DSF thermal shift, VvCHIL Q141A variant; assay type: binding
T4 sequence (F6HC36 entry or part of it Q141A): as the sequence (F6HC36 entry or part of it) above, with Q103A counted along it
Procedure: as §2

[7] = target: HlCHIL1; design: method as in PMID 29760092; details: measured by DSF; ref [15]; cited from earlier work
[8] = test system: PpCHS–PpCHIL-A L188W; experiment: Protein pull-down assay, strep-PpCHS and PpCHIL-A L188W; assay type: binding, P. patens; details: 4.3 mM ligand
Procedure: as §3

[9] = target: T5, PpCHIL-A L188W (Physcomitrium patens, UniProt A9T3E4, L188W); experiment: DSF thermal shift, PpCHIL-A L188W variant; assay type: binding, Physcomitrella patens
T5 sequence (A9T3E4 entry or part of it L188W): as the sequence (A9T3E4 entry or part of it) above, with L188W counted along it
Procedure: as §2

[10] = target: T6, MsCHI-II (Medicago sativa, UniProt P28012); experiment: Differential scanning fluorimetry (DSF) thermal shift, MsCHI-II; assay type: binding; details: pH 8.0, 2% DMSO, read-out: apparent Kd
T6 construct: His8 (thrombin-cleavable) (N, cleaved yes); made in house; host or cells: E. coli BL21 DE3-pRIL
T6 sequence (P28012 1-222): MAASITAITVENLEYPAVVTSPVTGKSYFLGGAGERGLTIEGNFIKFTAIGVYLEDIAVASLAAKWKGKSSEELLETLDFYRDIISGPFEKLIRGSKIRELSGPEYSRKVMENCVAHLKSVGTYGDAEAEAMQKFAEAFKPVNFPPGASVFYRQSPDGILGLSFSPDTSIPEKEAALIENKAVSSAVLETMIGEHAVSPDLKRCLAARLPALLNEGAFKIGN

[11] = test system: VvCHIL W221L; experiment: Quercetin fluorescence enhancement assay, VvCHIL W221L; assay type: binding, Vitis vinifera; details: VvCHIL W221L, fluorescence
Procedure: (§4) Fluorescence enhancement of quercetin (Thermo Scientific) was measured in the presence of VvCHIL and PpCHIL-A. The assays were performed in a buffer containing 25 mM Tris (pH 8.0), 150 mM NaCl, and 2% dimethyl sulfoxide (DMSO), used to solubilize quercetin. Protein concentrations were varied from 4.3 to 2250 μM relative to a constant concentration of quercetin (10 μM). After a binding equilibration period of 10 min at 25 °C, changes to the relative fluorescence intensity of quercetin (excitation 485 nm and emission 545 nm) were measured using a Vector X3 multimode plate reader (PerkinElmer). Background fluorescence from identical samples not containing quercetin was subtracted, and change-in-fluorescence data were fit using GraphPad Prism 9 (GraphPad Sofware, Inc) to a single-site binding equation in order to determine equilibrium dissociation constant (Kd) values.

[12] = target: T3, VvCHIL W221L; experiment: as above; assay type: binding
Procedure: as §4

[13] = target: T1, PpCHIL-A; experiment: Quercetin fluorescence enhancement assay, PpCHIL-A; assay type: binding, Physcomitrella patens; details: fluorescence enhancement of 10 μM quercetin, protein titrated, 25 °C, pH 8.0
Procedure: as §4

[14] = target: T2, VvCHIL; experiment: Quercetin fluorescence enhancement assay, VvCHIL; assay type: binding
Procedure: as §4

[15] = target: T5, PpCHIL-A L188W; experiment: Quercetin fluorescence enhancement assay, PpCHIL-A L188W; assay type: binding, Physcomitrella patens
Procedure: as §4

[16] = target: T4, VvCHIL Q141A; experiment: Quercetin fluorescence enhancement assay, VvCHIL Q141A; assay type: binding
Procedure: as §4

[17] = target: Chalcone isomerase-like protein from Vitis vinifera (VvCHIL) (Vitis vinifera); experiment: SEC; HiPrep Sephacryl S-200 high-resolution column, 1 ml/min, 200 mM NaCl, 25 mM Tris pH 8.0, 2 mM DTT; His tags removed; masses against Bio-Rad standards
[18] = DSF, 6 μM protein, pH 8.0, 2% DMSO
[19] = DSF, single-site fit, 6 μM protein, pH 8.0, 2% DMSO, read-out: apparent Kd
[20] = fluorescence enhancement of quercetin

Row | Compound | ΔTm [1, 18] [°C] | Kd [1, 19] [µM] | difference of apparent Kd relative to NC ([1]; DSF) | ΔTm [2, 18] [°C] | Kd [2, 19] [µM] | fold difference of apparent Kd relative to NC (NC smaller) ([2]; VvCHIL, DSF) | Kd [1] [µM] | effect on VvCHIL–AtCHS binding [3] | PpCHIL-A in the strep-PpCHS–bound fraction [4] | pull-down of PpCHIL-A L188W by PpCHS [8] | Kd [9] [µM] | increase of apparent binding affinity over wildtype PpCHIL-A ([9]; PpCHIL-A L188W, DSF) | effect on protein thermostability (thermal shift) ([2]; VvCHIL, DSF) | also measured
1 | O=C(/C=C/c1ccccc1O)c1ccc(O)cc1O [2,2ʹ,4ʹ-trihydroxychalcone] | 2.7 ± 0.2 | 85 ± 23 | twofold greater | 3.3 ± 0.7 | 286 ± 23 | ~11 fold |  |  |  |  |  |  |  | 
2 | O=C(/C=C/c1ccc(O)cc1)c1ccc(O)cc1O [2ʹ,4,4ʹ-trihydroxychalcone] |  |  | does not bind with an appreciable difference |  |  | approximately 5 fold | 41 ± 10 |  |  |  |  |  |  | Kd [2]: 127 ± 51 µM
3 | O=C(/C=C/c1ccc(O)cc1)c1c(O)cc(O)cc1O [NC, 2ʹ,4,4ʹ,6ʹ-tetrahydroxychalcone] | 1.7 ± 0.2 | 58 ± 16 |  | 3.5 ± 0.2 | 24 ± 5 |  |  | enhances binding | strongly enriched | enhanced | 18 ± 6 | approximately threefold |  | Kd [5]: 17 ± 4 µM; Kd [6]: 16 ± 2 µM; Kd [7]: 43 µM; ΔTmmax [7]: 6.4 °C
4 | O=C1C[C@@H](c2ccc(O)cc2)Oc2cc(O)cc(O)c21 [naringenin] |  |  |  |  |  |  | 762 ± 39 | increasingly disrupted | observed in the bound fractions | similarly in the presence and absence of naringenin | 180 ± 81 | approximately fourfold | reduced protein Tms at high naringenin concentrations | VvCHIL band in the strep-AtCHS–bound fraction ([3]; 4.30 mM ligand): below the threshold of detection; Kd [10]: 1020 µM and 1050 µM; thermal destabilization by ligand ([5]; VvCHIL W221L, DSF): does not undergo thermal destabilization; thermal destabilization by ligand ([6]; VvCHIL Q141A, DSF): does not undergo thermal destabilization; reduction of thermal stabilization relative to wildtype PpCHIL-A ([9]; PpCHIL-A L188W, DSF): approximately 2 °C
5 | O=c1c(O)c(-c2ccc(O)c(O)c2)oc2cc(O)cc(O)c12 [quercetin] |  |  |  |  |  |  |  |  |  |  |  |  | destabilizes | reduction of binding relative to wildtype VvCHIL [11]: approximately twofold; Kd [12]: 612 ± 167 µM; Kd [13]: 240 ± 121 µM; fraction of VvCHIL bound ([14]; 750 μM quercetin, based on the Kd value for VvCHIL): 0.68; Kd ([14]; fluorescence enhancement of 10 μM quercetin, protein titrated, 25 °C, pH 8.0): 347 ± 35 µM; reduction of binding affinity relative to wildtype PpCHIL-A ([15]; fluorescence): approximately twofold; Kd [15, 20]: 582 ± 282 µM; change of binding relative to wildtype VvCHIL ([16]; fluorescence): not significantly altered; Kd [16, 20]: 403 ± 59 µM; ligand concentration that induces a negative thermal shift ([2]; VvCHIL, DSF): above 750 μM
6 | Chalcone isomerase-like protein from Vitis vinifera (VvCHIL) (natural protein) |  |  |  |  |  |  |  |  |  |  |  |  |  | stoichiometry N [17]: 3
